Reference: US11179349B2, “Use of tumor gene methylation regulator and anti-tumor drugs” (priority 2016, dated 2021)
“And” between values parts separate entries of the source, which are not always exact repeats. Equal entries are not always repeated.

How the values were obtained:
[1] = tested on: human gastric cancer (SGC 7901); test: Experiment 9: suppression of gastric cancer (SGC 7901) xenografts with 5-fluorouracil and 3′-deoxyadenosine; type: in vivo, BALB/c nude mouse; conditions: 5-fluorouracil 6 mg/kg, intravenous, 28th day
Source text: (§3) The inoculated well-grown subcutaneously xenografted tumors were removed and cut into tumor tissue blocks with a size of about 2×2×2 mm for later use. After being anesthetized, the mice were placed in the left lateral decubitus position, the tumor tissue blocks were put into the armpits of the mice, the skin was sutured and disinfected, and then the mice were put back into the cages and fed normally. The mice were grouped after the tumors grew to have a diameter of about 7 to 8 mm. […] The general symptoms of the animals were observed before and after the administration. The longer diameter (a) and shorter diameter (b) of each of the solid tumors were measured twice per week after the first administration, the tumor volume was calculated according to the formula: volume (V)=½×a×b^2, and the animals were weighed. The drug was discontinued after administration for 14 days. On the 7th day after stopping the administration, the animals were weighed and then were sacrificed by cervical dislocation, and the solid tumors were removed and weighed. The data obtained were analyzed by SPSS statistical analysis software.
Each group was administered with a drug once daily (volume 0.2 mL, intravenously) and measured twice per week.

[2] = tested on: MCF-7 (human breast cancer); test: CellTiter-Glo luminescent cell viability assay, human breast cancer cells; type: cell-based; conditions: MCF7, MCF-7, 48 hours, drug used alone
Method: The above tumor cell line derived from ATCC was cultured in an incubator with 5% CO2 at 37° C.
(4). The culture plate was cultured overnight in an incubator with 5% CO2 and 100% relative humidity at 37° C.

Huh-7 (human hepatoma) = test: CellTiter-Glo luminescent cell viability assay, human hepatoma cells; conditions: Huh-7, 48 h
Method: The above tumor cell line derived from ATCC was cultured in an incubator with 5% CO2 at 37° C. The cell line was subcultured twice per week by trypsinization. Cells in the logarithmic growth phase were used for plating.
The concentration of the cells was adjusted to 2×10^4 cells/ml (about 2.0×10^3 cells/well).
(3) 100 μl of a cell suspension was added to each well in the culture plate, and a cell-free culture solution was added to the blank control wells.
Dosing: 5 μl of the compound working solution (20×) was taken and added to the cell culture plate. 5 μl of a mixed solution of DMSO-cell culture solution was added to the solvent control and the blank control.
The 96-well culture plate was put back to the incubator for culture for 48 hours.
The following steps were performed according to the instructions of the Promega CellTiter-Glo Luminescent Cell Viability Assay Kit (Promega-G7571).
(6) 80 μl of the CellTiter-Glo working solution was added to each well. The cell plate was covered with aluminum foil to protect it from light.
The culture plate was shaken on an orbital shaker for 2 minutes to induce cell lysis.
The culture plate was allowed to stand at room temperature for 10 minutes to stabilize a luminescent signal.

[3] = tested on: hepatoma cell line Huh-7, and breast cancer cell lines T47D and MCF-7; test: Previous work: in vitro cultured human solid tumor cells treated with 3′-deoxyadenosine alone; type: cell-based; conditions: Huh-7, T47D and MCF-7, inventors' previous work
Source text: However, its effect was still not satisfactory.

[4] = tested on: human breast cancer xenografts (MCF-7); test: Experiment 1: suppression of breast cancer (MCF-7) xenografts with capecitabine and 3′-deoxyadenosine; type: in vivo, BALB/c nude mouse; conditions: capecitabine 400 mg/Kg/day
Method: (§1) Human leukemia cells HL60, human gastric cancer cell line SGC-7901, human breast cancer cells MCF-7, human colon cancer cells HT-29, human lung cancer cells A-549, and human hepatoma cells Huh-7 were routinely cultured in vitro and digested and centrifuged to prepare cell suspensions at a concentration of about 1×10^7 cells/mL, respectively, which were inoculated subcutaneously in the right armpits of the mice at 0.2 mL per mouse.
(§2) The inoculated well-grown subcutaneously xenografted tumors were removed and cut into tumor tissue blocks with a size of about 2×2×2 mm for later use. After being anesthetized, the mice were placed in the left lateral decubitus position, the tumor tissue blocks were put into the armpits of the mice, the skin was sutured and disinfected, and then the mice were put back into the cages and fed normally. The mice were grouped after the tumors grew to have a diameter of about 7 to 8 mm. […] The longer diameter (a) and shorter diameter (b) of each of the solid tumors were measured twice per week after the first administration, the tumor volume was calculated according to the formula: volume (V)=½×a×b^2, and the animals were weighed. […] The data obtained were analyzed by SPSS statistical analysis software. […]

[5] = tested on: human gastric cancer xenografts (SGC-7901); test: Experiment 6: suppression of gastric cancer (SGC-7901) xenografts with capecitabine and 3′-deoxyadenosine; type: in vivo, BALB/c nude mouse; conditions: capecitabine 400 mg/Kg, 27th day
Source text: as §3

[6] = tested on: human colon cancer xenografts (HT-29); test: Experiment 7: suppression of colon cancer (HT-29) xenografts with capecitabine and 3′-deoxyadenosine; type: in vivo, BALB/c nude mouse; conditions: capecitabine 400 mg/Kg, 31st day
Source text: as §3

[7] = tested on: human lung cancer xenografts (A-549); test: Experiment 4: suppression of lung cancer (A-549) xenografts with cisplatin and 3′-deoxyadenosine; type: in vivo, BALB/c nude mouse
Method: as §1
The inoculated well-grown subcutaneously xenografted tumors were removed and cut into tumor tissue blocks with a size of about 2×2×2 mm for later use. After being anesthetized, the mice were placed in the left lateral decubitus position, the tumor tissue blocks were put into the armpits of the mice, the skin was sutured and disinfected, and then the mice were put back into the cages and fed normally. The mice were grouped after the tumors grew to have a diameter of about 7 to 8 mm. Generally, after being grouped, the mice were administered by gavage with a drug or with a blank solution (solvent: 0.9% (g/mL) sodium chloride injection) for continuous 14 days, once per day, administrated at a volume of 20 mL/kg. Special situations will be described separately in corresponding examples. The general symptoms of the animals were observed before and after the administration. The longer diameter (a) and shorter diameter (b) of each of the solid tumors were measured twice per week after the first administration, the tumor volume was calculated according to the formula: volume (V)=½×a×b^2, and the animals were weighed. The drug was discontinued after administration for 14 days. On the 7th day after stopping the administration, the animals were weighed and then were sacrificed by cervical dislocation, and the solid tumors were removed and weighed. The data obtained were analyzed by SPSS statistical analysis software.
Formula for Evaluation of the Therapeutic Efficacy: Tumor-growth inhibition rate=(average tumor weight in solvent control group−average tumor weight in administered control group)/average tumor weight in solvent control group×100%.
On the 14th day after inoculation of the mice with lung cancer A-549 cells, xenografted tumor models were successful, and then treated with drugs. Refer to FIG. 4 for experimental results.

[8] = tested on: human hepatoma xenografts (Huh-7); test: Experiment 5: suppression of hepatoma (Huh-7) xenografts with doxorubicin and 3′-deoxyadenosine; type: in vivo, BALB/c nude mouse; conditions: doxorubicin 2.5 mg/kg, 37th day
Source text: as §3
On the 23rd day after inoculation of the mice with human hepatoma Huh-7 cells, xenografted tumor models were successful, and then treated with drugs.

[9] = tested on: human leukemia xenografts (HL60); test: Experiment 2: suppression of leukemia (HL60) xenografts with doxorubicin and 3′-deoxyadenosine; type: in vivo, BALB/c nude mouse
Method: as §1, §2

Work on O=c1[nH]cc(F)c(=O)[nH]1 [5-fluorouracil] yielded an inhibition rate [1] of 67.5%.

In the case of CC(=O)O[C@H]1C(=O)[C@@]2(C)[C@H]([C@H](OC(=O)c3ccccc3)[C@]3(O)C[C@H](OC(=O)[C@H](O)[C@@H](NC(=O)c4ccccc4)c4ccccc4)C(C)=C1C3(C)C)[C@]1(OC(C)=O)CO[C@@H]1C[C@@H]2O [paclitaxel], the IC50 [2] is reported as 0.742 µM.

With Nc1ncnc2c1ncn2[C@@H]1O[C@H](CO)C[C@H]1O [3′-deoxyadenosine] the IC50 (Huh-7 (human hepatoma)) was 1.35 µM, the inhibition of proliferation [3] was “could inhibit the proliferation” and the IC50 [2] was 0.85 µM.

Molecule CCCCCOC(=O)Nc1nc(=O)n([C@@H]2O[C@H](C)[C@@H](O)[C@H]2O)cc1F [capecitabine] has an experimental animals died ([4]; 11th day of the experiment, 7 mice per group) of 5, a tumor inhibition rate ([4]; 11th day, vs normal saline group) of 86.1% and an inhibition rate [5] of 57.8%. For the same molecule, the inhibition rate [6] was 80.1%.

For N.N.[Cl][Pt][Cl] [cisplatin], the mice died ([7]; cisplatin 5 mg/kg/day, 7th day, 7 mice per group) was “two nude mice died”, the mice died ([7]; cisplatin 5 mg/kg/day, 10th day, 7 mice per group) was 4 and the “mice died (total)” value ([7]; cisplatin 5 mg/kg/day, reduced to 2.5 mg/kg on the 15th day, 18th day, 7 mice per group) was 5 and 5/7. The “inhibitory effect on tumor growth” value ([7]; high-dosage cisplatin (5 mg/kg)) was “good inhibitory effect on tumor growth”.

In the case of COc1cccc2c1C(=O)c1c(O)c3c(c(O)c1C2=O)C[C@@](O)(C(=O)CO)C[C@@H]3O[C@H]1C[C@H](N)[C@H](O)[C@H](C)O1 [doxorubicin], the IC50 (Huh-7 (human hepatoma)) is reported as 1.2 µM, the tumor-growth inhibition rate [8] is reported as 25.7% and the tumor-growth inhibition rate ([9]; doxorubicin 60 mg/kg/week (20 mg/kg each time, 3 times/week), 14th day) is reported as 21.4%. For the same molecule, the experimental animals died ([9]; doxorubicin 60 mg/kg/week, 14th day of the experiment, 7 mice per group) was “one experimental animal in this group died” and the IC50 [2] was 0.51 µM.
